Measurements as given in patent US20100317565A1, “Novel Peptides and Their Use for the Treatment of Edema” (Rentschler Beteiligungs GmbH, priority 2007, published 2010).
Entries after “also recorded” stand apart in the source; their conditions may differ. Bridge positions count the residues as written; N and C are the ends. Ends that are not written are not given here.

Key:
[1] = test system: polarized Calu-3 cell monolayers; experiment: Transepithelial electrical resistance (TEER) assay on polarized Calu-3 cell monolayers; type: cell-based, human; details: peptide 250 μM added to apical and basolateral compartment; peak TEER value as percent of Tip peptide (=100%)
[2] = test system: microvascular endothelial cells; details: cited from earlier work
[3] = test system: in situ mouse lung; details: cited from earlier work
[4] = test system: rat lung; details: ex vivo and in vivo rat lung model; cited from earlier work
[5] = test system: isolated blood perfused flooded rat lung (E. coli-LPS induced lung edema); experiment: Endotoxin induced lung injury in the isolated blood perfused flooded rat lung model; type: in vivo, male Spraque-Dawley rats; details: P5 3 mg or P9 10 mg in 1 ml saline i.t.; for Attenuation of LPS-induced total lung weight gain / lung edema production: LPS 3 mg/kg i.t., 18 h, 2-h ex-vivo reperfusion; for Inspiratory resistive work / Static and dynamic lung compliance: LPS-treated lungs; for Inspiratory resistive work / Static and dynamic lung compliance / Effect on lung wet/dry weight ratio: 2-h reperfusion; for Effect on lung wet/dry weight ratio: versus LPS+saline treated lungs
Protocol: In the “Endotoxin induced lung injury in the isolated blood perfused flooded rat lung model”, which is an ex vivo permeability lung edema model, E. coli-LPS is instilled intratracheally and after […] the lung is isolated and placed in an artificial thorax chamber. Then, perfusion occurs with autolo-gous blood. After an one hour stabilisation period, the test compound (in 1 ml saline) is instilled intratra-cheally. Lung parameters are measured over 2 hours. The main read-outs are lung-weight and parameters of lung mechanics and hemodynamics.
In the “Endotoxin induced lung injury in the isolated blood perfused flooded rat lung model”, which is an ex vivo permeability lung edema model, E. coli-LPS is instilled intratracheally and after […] the lung is isolated and placed in an artificial thorax chamber. Then, perfusion occurs with autologous blood. After an one hour stabilisation period, the test compound (in 1 ml saline) is instilled intratracheally. Lung parameters are measured over 2 hours. The primary readout parameters of this […] model are wet weight of lung and heart and P/V curves which are parameters of lung mechanics and hemodynamics.
In this ex vivo lung edema model, E. coli-LPS (3 mg/kg) was instilled intratracheally into male Spraque-Dawley rats. After 18 h the lung was isolated and placed in an artificial thorax chamber. Then, perfusion occurred with autologous blood. After one hour stabilisation period, the test compound (in 1 ml saline) was instilled intratracheally. Lung parameters were measured over 2 h. The main read-outs were lung-weight and parameters of lung mechanics and hemodynamics. • Number of rats: n=7-8 per group • Data are means±SEM • Treatment groups:
? P9 • Perfusion conditions: • imposed pulmonary artery perfusion pressure: 20 mmHg • imposed left atrial pressure: 10 mmHg • resulting pulmonary blood flow: ˜6-9 ml/min • resulting pulmonary microvascular pressure: ˜14.5 mmHg • imposed tidal volume: 7 ml/kg; respiratory rate: 30 bpm • imposed positive end-expiratory airway pressure: 3.0 cmH2O-arterial pH: 7.5 • adjusted hematocrit: 28% (autologous blood)

Substance	Activity in TEER assay (c = 250 μM) (% of Tip activity) [1]	further results
2 (CGTKPIELGPDEPKAVC; disulfide 1-17 (inferred)) [compound 2]	130.1 % of Tip activity	
5 (TPEGAETPEGAETPEGAETPEGAETPEGAE; anti-edema peptide) [compound 5]	93.0 % of Tip activity	
11 (TPEGAEGGGGGTPEGAEGGGGGTPEGAE; anti-edema peptide) [compound 11]	80.0 % of Tip activity	
20 (GGSPSQRETPEGAEAKPWYGGSPSQRETPEGAEAKPWYGGSPSQRETPEGAEAKPWY; anti-edema peptide) [compound 20]	539.0 % of Tip activity	
35 (CGQRESPEGAEAKPWYC; anti-edema peptide) [compound 35]	120.9 % of Tip activity	
36 (CGQRESPEGADAKPWYC; anti-edema peptide) [compound 36]	119.4 % of Tip activity	
39 (CGQRESPDGAEAKPWYC; anti-edema peptide) [compound 39]	88.8 % of Tip activity	
40 (CGQRESPDGADAKPWYC; anti-edema peptide) [compound 40]	127.7 % of Tip activity	
42 (CGQRESPDGGDAKPWYC; anti-edema peptide) [compound 42]	123.6 % of Tip activity	
43 (CGQRETPEGADAKPWYC; anti-edema peptide) [compound 43]	139.8 % of Tip activity	
45 (CGQRETPDGADAKPWYC; anti-edema peptide) [compound 45]	172.4 % of Tip activity	
46 (CGQRETPDGAEAKPWYC; anti-edema peptide) [compound 46]	130.4 % of Tip activity	
49 (CGTPEGAETPEGAETPEGAEGC; anti-edema peptide) [compound 49]	139.9 % of Tip activity	
50 (CGGGGGTPEGAEGGGGGTPEGAEGGGGGTPEGAEGC; anti-edema peptide) [compound 50]	156.5 % of Tip activity	
51 (CGTPEGAETPEGAETPEGAETPEGAETPEGAEGC; anti-edema peptide) [compound 51]	146.6 % of Tip activity	
52 (SPEGGEGGGGGSPEGGEGGGGGSPEGGE; anti-edema peptide) [compound 52]	87.1 % of Tip activity	
53 (CGSPEGGEGGGGGSPEGGEGGGGGSPEGGEGC; anti-edema peptide) [compound 53]	131.7 % of Tip activity	
54 (SPEGGDGGGGGSPEGGDGGGGGSPEGGD; anti-edema peptide) [compound 54]	90.7 % of Tip activity	
55 (CGSPEGGDGGGGGSPEGGDGGGGGSPEGGDGC; anti-edema peptide) [compound 55]	146.0 % of Tip activity	
CGQRETPEGAEAKPWYC [SEQ ID NO: 61]		Membrane conductance [2]: increased; Alveolar fluid reabsorption [3]: up-regulated; Alveolar fluid reabsorption [4]: up-regulated
CGSPEGGDSPEGGDSPEGGDGC (anti-edema peptide) [Peptide P5]		Attenuation of LPS-induced total lung weight gain / lung edema production [5]: significantly attenuate; also recorded: attenuating the LPS-induced total lung weight gain; Inspiratory resistive work [5]: especially reduces; Static and dynamic lung compliance [5]: markedly ameliorates; Effect on lung wet/dry weight ratio [5]: statistically significantly different from LPS+saline treated lungs
SPEGGEGGGGGSPEGGEGGGGGSPEGGE (anti-edema peptide) [SEQ ID NO: 52]		Attenuation of LPS-induced total lung weight gain / lung edema production ([5]; listed as P9): attenuating the LPS-induced total lung weight gain; Inspiratory resistive work [5]: especially reduces; Static and dynamic lung compliance [5]: markedly ameliorates; Effect on lung wet/dry weight ratio [5]: less pronounced
